{
  "source": "patent US9999222B2",
  "about": "“Herbicidal combination comprising azines” (BASF SE, priority 2014, dated 2018)",
  "test_in_all_cases": "Greenhouse test, pre-emergence treatment",
  "key": {"[1]": {"tested_on": "BRADC", "format": "in vivo, Brachiaria decumbens", "outline": "(§1)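 Seeds were sown in loamy sand with approximately 3.0% humus, then sprayed at once with actives suspended or emulsified in water. Pots were watered, hooded until rooting, held at 10-25° C. or 20-35° C. by species for 2 to 4 weeks, and scored 0 (no damage) to 100 (no emergence/complete destruction).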"}, "[2]": {"tested_on": "KCHSC", "format": "in vivo, Kochia scoparia", "details": "Bassia scoparia, pre-emergence, 480 h, pre-emergence, 125 g ai/ha; read-out: observed % activity 20 DAT", "outline": "as §1"}, "[3]": {"tested_on": "IPOHE", "format": "in vivo, Ipomoea hederacea", "details": "Ipomoea hederacea, 480 h, 250 g ai/ha, read-out: observed % activity 20 DAT", "outline": "as §1"}, "[4]": {"tested_on": "AVEFA", "format": "in vivo, Avena fatua", "details": "for inhibition at 125 g/ha / inhibition at 250 g/ha: Avena fatua, 480 h; for inhibition at 125 g/ha: 125 g ai/ha", "outline": "as §1"}, "[5]": {"tested_on": "GALAP", "format": "in vivo, Galium aparine", "details": "Galium aparine, pre-emergence, 480 h; for inhibition at 125 g/ha: 125 g ai/ha", "outline": "as §1"}, "[6]": {"tested_on": "SORHA", "format": "in vivo, Sorghum halepense", "details": "Sorghum halepense, pre-emergence, 480 h; 250 g ai/ha, 20 DAT; read-out: observed % activity", "from_the_text": "The culture containers used were plastic flowerpots containing loamy sand with approximately 3.0% of humus as the substrate. The seeds of the test plants were sown separately for each species.\nFor the pre-emergence treatment, the active ingredients, which had been suspended or emulsified in water, were applied directly after sowing by means of finely distributing nozzles. The containers were irrigated gently to promote germination and growth and subsequently covered with transparent plastic hoods until the plants had rooted. This cover caused uniform germination of the test plants, unless this had been impaired by the active ingredients.\nDepending on the species, the plants were kept at 10-25° C. or 20-35° C., respectively.\nThe test period extended over 2 to 4 weeks. During this time, the plants were tended, and their response to the individual treatments was evaluated.\nEvaluation was carried out using a scale from 0 to 100. 100 means no emergence of the plants, or complete destruction of at least the aerial moieties, and 0 means no damage, or normal course of growth. A moderate herbicidal activity is given at values of at least 60, a good herbicidal activity is given at values of at least 70, and a very good herbicidal activity is given at values of at least 85.\nThe respective stated components a and b, and if appropriate, c were formulated as a 10% by weight strength emulsion concentrate and, with addition of the amount of solvent system, introduced into the spray liquor used for applying the active compound.\nIn the examples, the solvent used was water.\nIn the examples below, using the method of S. R. Colby (1967) “Calculating synergistic and antagonistic responses of herbicide combinations”, Weeds 15, p. 22ff., the value E, which is expected if the activity of the individual active compounds is only additive, was calculated. E=X+Y−(X·Y/100) where • X=percent activity using active compound a at an application rate A; • Y=percent activity using active compound b at an application rate B; • E=expected activity (in %) by a+b at application rates A+B.\nIf the value found experimentally is higher than the value E calculated according to Colby, a synergistic effect is present."}, "[7]": {"tested_on": "PHACA", "format": "in vivo, Phalaris canariensis", "details": "for inhibition at 250 g/ha: 250 g ai/ha", "outline": "as §1"}, "[8]": {"tested_on": "COMBE", "format": "in vivo, Commelina benghalensis", "details": "Commelina benghalensis, pre-emergence, 480 h, pre-emergence, 250 g ai/ha; read-out: observed % activity 20 DAT", "outline": "as §1"}, "[9]": {"tested_on": "POLCO", "format": "in vivo, Polygonum convolvulus", "details": "Fallopia convolvulus, pre-emergence, 480 h, pre-emergence", "outline": "as §1"}, "[10]": {"tested_on": "ECHCG", "format": "in vivo, Echinocloa crus-galli", "details": "Echinochloa crus-galli, 480 h, read-out: observed % activity 20 DAT", "outline": "as §1"}, "[11]": {"tested_on": "ALOMY", "format": "in vivo, Alopecurus myosuroides", "outline": "as §1"}, "[12]": {"tested_on": "LOLMU", "format": "in vivo, Lolium multiflorum", "details": "pre-emergence", "outline": "as §1"}, "[13]": {"tested_on": "EPHHL", "format": "in vivo, Euphorbia heterophylla", "details": "Euphorbia heterophylla, pre-emergence, 480 h, pre-emergence, 250 g ai/ha; read-out: observed % activity 20 DAT", "outline": "as §1"}, "[14]": {"details": "62, 5 g ai/ha, 20 DAT, read-out: observed % activity"}},
  "note": "Values joined by “and” are separate entries in the source; they are usually repeats but may differ in a detail not shown here. Equal entries are not always repeated. Where two headings read alike, the source gives them in different places.",
  "data": [
    {"smiles": "CSc1nnc(C(C)(C)C)c(=O)n1N", "note": "[metribuzin]", "values": [
      {"measurement": "observed % activity", "setting": "[1]; 62, 5 g ai/ha, 20 DAT", "value": 50, "unit": "%"},
      {"measurement": "inhibition at 62.5 g/ha", "setting": "[1]; Urochloa decumbens, pre-emergence, 480 h, pre-emergence, 62.5 g ai/ha, read-out: observed % activity 20 DAT", "value": 45, "unit": "%"},
      {"measurement": "observed % activity 20 DAT", "setting": "[1]; pre-emergence, 250 g ai/ha", "value": 40, "unit": "%"},
      {"measurement": "inhibition at 125 g/ha", "setting": "[2]", "value": 95, "unit": "%"},
      {"measurement": "inhibition at 250 g/ha", "setting": "[3]", "value": 20, "unit": "%"},
      {"measurement": "observed % activity", "setting": "[4]; 62, 5 g ai/ha, 20 DAT", "value": 0, "unit": "%"},
      {"measurement": "inhibition at 125 g/ha", "setting": "[4]; pre-emergence, 20 DAT, read-out: observed % activity", "value": 10, "unit": "%"},
      {"measurement": "inhibition at 250 g/ha", "setting": "[4]; pre-emergence, 250 g ai/ha, 20 DAT, read-out: observed % activity", "value": 55, "unit": "%"},
      {"measurement": "inhibition at 125 g/ha", "setting": "[4]; pre-emergence, pre-emergence, read-out: observed % activity 20 DAT", "value": 80, "unit": "%"},
      {"measurement": "inhibition at 250 g/ha", "setting": "[4]; pre-emergence, pre-emergence, 250 g ai/ha, read-out: observed % activity 20 DAT", "value": 70, "unit": "%"},
      {"measurement": "observed % activity 20 DAT", "setting": "[4]; pre-emergence, 250 g ai/ha", "value": 65, "unit": "%"},
      {"measurement": "inhibition at 125 g/ha", "setting": "[5]; 20 DAT, read-out: observed % activity", "value": 30, "unit": "%"},
      {"measurement": "inhibition at 250 g/ha", "setting": "[5]; 250 g ai/ha, 20 DAT, read-out: observed % activity", "value": 30, "unit": "%"},
      {"measurement": "inhibition at 125 g/ha", "setting": "[5]; read-out: observed % activity 20 DAT", "value": 20, "unit": "%"},
      {"measurement": "pest or weed control at 62.5 g/ha", "setting": "[5]; [14]", "value": 30, "unit": "%"},
      {"measurement": "inhibition at 250 g/ha", "setting": "[6]", "value": 45, "unit": "%"},
      {"measurement": "observed % activity", "setting": "[7]; 62, 5 g ai/ha, 20 DAT", "value": 30, "unit": "%"},
      {"measurement": "inhibition at 125 g/ha", "setting": "[7]; Phalaris canariensis, pre-emergence, 480 h, 125 g ai/ha, 20 DAT, read-out: observed % activity", "value": 70, "unit": "%"},
      {"measurement": "inhibition at 250 g/ha", "setting": "[7]; Phalaris canariensis, pre-emergence, 480 h, 20 DAT, read-out: observed % activity", "value": 90, "unit": "%"},
      {"measurement": "inhibition at 62.5 g/ha", "setting": "[7]; Phalaris canariensis, pre-emergence, 480 h, pre-emergence, 62.5 g ai/ha, read-out: observed % activity 20 DAT", "value": 15, "unit": "%"},
      {"measurement": "inhibition at 125 g/ha", "setting": "[7]; Phalaris canariensis, pre-emergence, 480 h, pre-emergence, 125 g ai/ha, read-out: observed % activity 20 DAT", "value": 65, "unit": "%"},
      {"measurement": "inhibition at 250 g/ha", "setting": "[7]; Phalaris canariensis, pre-emergence, 480 h, pre-emergence, read-out: observed % activity 20 DAT", "value": 95, "unit": "%"},
      {"measurement": "observed % activity 20 DAT", "setting": "[7]; pre-emergence, 125 g ai/ha", "value": 75, "unit": "%"},
      {"measurement": "inhibition at 250 g/ha", "setting": "[8]", "value": 90, "unit": "%"},
      {"measurement": "inhibition at 125 g/ha", "setting": "[9]; 125 g ai/ha, read-out: observed % activity 20 DAT", "value": 20, "unit": "%"},
      {"measurement": "inhibition at 250 g/ha", "setting": "[9]; 250 g ai/ha, read-out: observed % activity 20 DAT", "value": 20, "unit": "%"},
      {"measurement": "pest or weed control at 62.5 g/ha", "setting": "[9]; [14]", "value": 0, "unit": "%"},
      {"measurement": "inhibition at 125 g/ha", "setting": "[10]; 125 g ai/ha", "value": 80, "unit": "%"},
      {"measurement": "inhibition at 250 g/ha", "setting": "[10]; 250 g ai/ha", "value": 95, "unit": "%"},
      {"measurement": "observed % activity", "setting": "[11]; 62, 5 g ai/ha, 20 DAT", "value": 35, "unit": "%"},
      {"measurement": "inhibition at 250 g/ha", "setting": "[11]; Alopecurus myosuroides, pre-emergence, 480 h, 250 g ai/ha, 20 DAT, read-out: observed % activity", "value": 98, "unit": "%"},
      {"measurement": "inhibition at 62.5 g/ha", "setting": "[11]; Alopecurus myosuroides, pre-emergence, 480 h, pre-emergence, 62.5 g ai/ha, read-out: observed % activity 20 DAT", "value": 0, "unit": "%"},
      {"measurement": "inhibition at 125 g/ha", "setting": "[11]; Alopecurus myosuroides, pre-emergence, 480 h, pre-emergence, 125 g ai/ha, read-out: observed % activity 20 DAT", "value": 80, "unit": "%"},
      {"measurement": "inhibition at 250 g/ha", "setting": "[11]; Alopecurus myosuroides, pre-emergence, 480 h, pre-emergence, 250 g ai/ha, read-out: observed % activity 20 DAT", "value": 90, "unit": "%"},
      {"measurement": "observed % activity 20 DAT", "setting": "[11]; pre-emergence, 250 g ai/ha", "value": 75, "unit": "%"},
      {"measurement": "inhibition at 125 g/ha", "setting": "[12]; Lolium multiflorum, 480 h, 125 g ai/ha, 20 DAT, read-out: observed % activity", "value": 60, "unit": "%"},
      {"measurement": "inhibition at 250 g/ha", "setting": "[12]; Lolium multiflorum, 480 h, 250 g ai/ha, 20 DAT, read-out: observed % activity", "value": 90, "unit": "%"},
      {"measurement": "inhibition at 62.5 g/ha", "setting": "[12]; Lolium multiflorum, 480 h, 62.5 g ai/ha, read-out: observed % activity 20 DAT", "value": 0, "unit": "%"},
      {"measurement": "inhibition at 125 g/ha", "setting": "[12]; Lolium multiflorum, 480 h, 125 g ai/ha, read-out: observed % activity 20 DAT", "value": 55, "unit": "%"},
      {"measurement": "observed % activity 20 DAT", "setting": "[12]; 125 g ai/ha", "value": 65, "unit": "%"},
      {"measurement": "observed % activity 20 DAT", "setting": "[12]; 250 g ai/ha", "value": "45% and 75%"},
      {"measurement": "inhibition at 250 g/ha", "setting": "[13]", "value": 85, "unit": "%"}
    ]}
  ]
}
